Key:
[1] = Tissue distribution and elimination of total radioactivity (total residues) after oral ^3H-ADP for 7 d; assay type: in vivo, swine
Protocol: (0.1 Ci/g) through oral gavage for 7 consecutive days. All the animals were housed on the basis of their group in the cages or aquaria throughout the whole study period. A group of animals was slaughtered through exsanguination under diethyl ether inhalation of anesthesia in the period of 6 h, 1, 3, 7, 14, and 21 d after the administration. The blood samples were immediately collected into the heparinized tubes and was centrifuged at 1920 × g at 4 °C for 10 min to obtain the plasma. The tissues from the heart, liver, spleen, lung, kidney, craw (broilers), stomach, intestine, fat, skin, muscle, thymus, pancreas, bile, bladder, hair (scale for carp), genital gland, adrenal glands, swim bladder (carp), brain, lymph, and bursa (broilers) were carefully excised and collected. The tissues were thoroughly rinsed with the deionized water to remove the residuary blood, blotted to dryness, and finally to perform the homogenization. In order to avoid cross-contamination the dissecting instruments were washed during the tissue procurements. The blank tissues were collected in order to provide control matrices. The total radioactivity levels in each sample were determined through LSC. The samples extracted from the plasma, bile, and tissues of the liver, kidney, muscle, and fat/skin were analyzed through LC/MS-IT-TOF and v. ARC radiometric detection for metabolite profiling.
Measurements of the total radioactivity in each sample were conducted by Packard Tri-Carb 2900 TR liquid scintillation counter (PerkinElmer Life and Analytical Sciences). The detection time was 10 min for two cycles. The scintillation counter data were automatically corrected for counting efficiency by instrument-stored quench curve which was drawn with a series of sealed quenched […] standards. The actual radioactivity of each sample was calculated by subtracting the background value form the mean radioactivity in two blank samples. All the samples were analyzed in duplicate if the sample size allowed this. If the results were differed by more than 10% from the mean value, the samples were reanalyzed. The samples with LSC counts less than 2-fold of the level of the running background were considered to contain insufficient radioactivity for reliable quantification.
Aliquots of liquid samples (urine, plasma, bile and raised water, 200 μL) were mixed with 10 mL of Ultima Gold^TM scintillation fluid for the direct analysis by LSC. Aliquots of solid samples (feces and tissues, 200 mg) were digested overnight with 2 mL tissue solubilizer at 50 °C in a shaking water bath, followed by adding 200 μL of 0.1 mol/L EDTA-Na and 200 μL of 30% H2O2, and was bathed at 50 °C for 2 h to bleach. The obtained transparent liquid were mixed with 10 mL of scintillation fluid and finally were counted by LSC. The digestion efficiency was determined by using the blank samples spiked with ^3 H standard for digestion, and the measured radioactivity content in the digested samples were adjusted by using the digestion efficiency values.
The concentrations of ADP and/or its metabolites were analyzed by using the following equation: C = L/(2.22 × 10^9 × RM), where C is the concentration of ADP or/and its metabolites (mg/kg), L is the LSC count (dpm), R is the specific activity of the administered dose (0.1 Ci/g), and M is the weight or volume of samples (kg or L). The results are expressed as mean ± SD. The elimination kinetics of terminal phase for ADP and its metabolites were conducted by using the WinNonlin linear regression program (Pharsight corporation, Statistical consultants, Inc., Kentucky, USA).

[2] = Radioactivity excretion (mass balance) after a single oral dose of ^3H-ADP; assay type: in vivo; details: single oral 5 mg/kg b. w., within 14 d
Protocol: Animals (4 swine, 6 broilers, 6 carp, and 3 male and 3 female rats) were housed individually in clean, suspended wire-mesh metabolism cages, designed to separate the urine from the feces (carp were raised in individual aquaria). Each animal was weighed and assigned with a permanent identification number. A single dose of ^3 H-ADP (5 mg/kg b. w., 0.1 Ci/g) was administered via the oral gavage. Excreta were collected on ice at the pre-administration, in the period of 6, 12, and 24 h on day 1 d, and afterwards, intermittently in the period of 24 h up to 14 d. The piscine excreta were collected by changing and collecting raised water. The total volume or weight of each sample was measured and homogenized. The total radioactivity levels were determined through LSC for the recovery calculations. After the preparation, the samples were analyzed through LC/MS-IT-TOF with v. […] The pretreatment samples were used as controls to determine the background radioactivity or the endogenous nondrug-related ions observed within respective matrices or their extracts.
Measurements of the total radioactivity in each sample were conducted by Packard Tri-Carb 2900 TR liquid scintillation counter (PerkinElmer Life and Analytical Sciences). […] The actual radioactivity of each sample was calculated by subtracting the background value form the mean radioactivity in two blank samples. […]

## [3H]c1c(Cc2cnc(N)nc2N)cc(OC)c(N(C)C)c1OC [^3H-ADP]
[1]; swine Adrenal
  Ke of total residues: 0.28
[1]; swine Bile
  Ke of total residues: 0.71
[1]; swine Bladder
  Ke of total residues: 0.50
[1]; swine Blood
  Ke of total residues: 0.48
[1]; swine Clothing hair
  Ke of total residues: 0.17
[1]; swine Fat
  Ke of total residues: 0.20
[1]; swine Heart
  Ke of total residues: 0.29
[1]; swine Kidney
  Ke of total residues: 0.21
[1]; swine Large Intestine
  Ke of total residues: 0.47
[1]; swine Liver
  Ke of total residues: 0.16
[1]; swine Lung
  Ke of total residues: 0.28
[1]; swine Lymph
  Ke of total residues: 0.46
[1]; swine Muscle
  Ke of total residues: 0.41
[1]; swine Pancreas
  Ke of total residues: 0.27
[1]; swine Skin
  Ke of total residues: 0.42
[1]; swine Small Intestine
  Ke of total residues: 0.54
[1]; swine Spleen
  Ke of total residues: 0.20
[1]; swine Stomach
  Ke of total residues: 0.52
[1]; swine Thymus
  Ke of total residues: 0.37

## COc1cc(Cc2cnc(N)nc2N)cc(OC)c1N(C)C [A0, 2,4-Diamino-5-[4-(dimethylamino)-3,5-dimethoxybenzyl] pyrimidine]
[2]; rats
  urine excretion of radioactivity: 78 % of the administered dose
[2]; swine
  urine excretion of radioactivity: 78 % of the administered dose

Source: publication PMC4738305, “Metabolism and Disposition of Aditoprim in Swine, Broilers, Carp and Rats” (Scientific Reports, 2016)
